In publication PMC3794980, “Identification of Conserved and HLA Promiscuous DENV3 T-Cell Epitopes” (PLoS Neglected Tropical Diseases, 2013):

How the values were obtained:
Assay in all cases: biochemical
Assay type in all cases: binding
DRB5*0101 = DRB5*0101 (Homo sapiens, UniProt P01903+Q30154)
DRB3*0101 = DRB3*0101 (Homo sapiens, UniProt P01903+P79483)
DRB4*0101 = DRB4*0101 (Homo sapiens, UniProt P01903+P13762, G164S)

CC[C@H](C)[C@H](NC(=O)CNC(=O)[C@@H](NC(=O)[C@@H](NC(=O)[C@@H](NC(=O)[C@H](CC(N)=O)NC(=O)[C@H](CO)NC(=O)[C@H](CCC(=O)O)NC(=O)CNC(=O)[C@H](Cc1ccccc1)NC(=O)[C@@H]1CCCN1C(=O)[C@@H]1CCCN1C(=O)[C@H](CCC(=O)O)NC(=O)[C@H](C)NC(=O)[C@@H](N)CCC(=O)O)[C@@H](C)CC)C(C)C)[C@@H](C)CC)C(=O)O [Envelope 366-380]
IC50 (DRB5*0101): 12500 nM
IC50 (DRB3*0101): 3240 nM
IC50 (DRB4*0101): 3.81 µM

CC[C@H](C)[C@H](N)C(=O)N[C@H](C(=O)N[C@H](C(=O)NCC(=O)N[C@H](C(=O)NCC(=O)N[C@@H](CC(=O)O)C(=O)N[C@@H](CC(N)=O)C(=O)N[C@@H](C)C(=O)N[C@@H](CC(C)C)C(=O)N[C@@H](CCCCN)C(=O)N[C@H](C(=O)N[C@@H](CC(N)=O)C(=O)N[C@@H](Cc1c[nH]c2ccccc12)C(=O)N[C@@H](Cc1ccc(O)cc1)C(=O)O)[C@@H](C)CC)[C@@H](C)CC)[C@@H](C)CC)C(C)C [Envelope 376-390]
IC50 (DRB5*0101): 1250 nM
IC50 (DRB3*0101): 15 nM
IC50 (DRB4*0101): 1.24 µM

CC[C@H](C)[C@H](N)C(=O)NCC(=O)N[C@@H](CCCCN)C(=O)N[C@@H](CCSC)C(=O)N[C@@H](Cc1ccccc1)C(=O)N[C@@H](CCC(=O)O)C(=O)N[C@@H](C)C(=O)N[C@H](C(=O)N[C@@H](C)C(=O)N[C@@H](CCCNC(=N)N)C(=O)NCC(=O)N[C@@H](C)C(=O)N[C@@H](CCCNC(=N)N)C(=O)N[C@@H](CCCNC(=N)N)C(=O)N[C@@H](CCSC)C(=O)O)[C@@H](C)O [Envelope 396-410]
IC50 (DRB5*0101): 27 nM
IC50 (DRB3*0101): 424 nM
IC50 (DRB4*0101): 3.61 µM

CC(C)C[C@H](NC(=O)[C@H](CCCNC(=N)N)NC(=O)[C@H](CCCCN)NC(=O)[C@@H]1CCCN1C(=O)[C@H](CO)NC(=O)[C@H](CC(=O)O)NC(=O)[C@H](C)NC(=O)[C@H](CCC(N)=O)NC(=O)[C@H](Cc1ccccc1)NC(=O)[C@H](CCCCN)NC(=O)[C@H](Cc1ccc(O)cc1)NC(=O)[C@H](CCC(N)=O)NC(=O)[C@H](CCC(=O)O)NC(=O)[C@@H](N)[C@@H](C)O)C(=O)N[C@@H](C)C(=O)O [NS1 29-43]
IC50 (DRB5*0101): 23 nM
IC50 (DRB3*0101): 11 nM
IC50 (DRB4*0101): 14.4 µM

CC[C@H](C)[C@H](NC(=O)[C@H](CCC(N)=O)NC(=O)[C@@H](N)CCCCN)C(=O)N[C@@H](C)C(=O)N[C@@H](CC(N)=O)C(=O)N[C@@H](CCC(=O)O)C(=O)N[C@@H](CC(C)C)C(=O)N[C@@H](CC(N)=O)C(=O)N[C@@H](Cc1ccc(O)cc1)C(=O)N[C@H](C(=O)N[C@@H](CC(C)C)C(=O)N[C@@H](Cc1c[nH]c2ccccc12)C(=O)N[C@@H](CCC(=O)O)C(=O)N[C@@H](CC(N)=O)C(=O)N[C@@H](CC(N)=O)C(=O)O)[C@@H](C)CC [NS1 69-83]
IC50 (DRB5*0101): 2380 nM
IC50 (DRB3*0101): 50 nM
IC50 (DRB4*0101): 0.608 µM

CC[C@H](C)[C@H](N)C(=O)N[C@H](C(=O)NCC(=O)N[C@H](C(=O)N[C@@H](CC(C)C)C(=O)N[C@@H](CCC(=O)O)C(=O)N[C@@H](CCC(N)=O)C(=O)NCC(=O)N[C@@H](CCCCN)C(=O)N[C@@H](CCCNC(=N)N)C(=O)N[C@H](C(=O)N[C@@H](CC(C)C)C(=O)N[C@H](C(=O)N1CCC[C@H]1C(=O)N[C@@H](CCC(N)=O)C(=O)O)[C@@H](C)O)[C@@H](C)O)C(C)C)[C@@H](C)CC [NS1 93-107]
IC50 (DRB5*0101): 3070 nM
IC50 (DRB3*0101): 4350 nM
IC50 (DRB4*0101): 3.7 µM

CC[C@H](C)[C@H](NC(=O)[C@H](CCSC)NC(=O)[C@H](CC(=O)O)NC(=O)[C@H](CO)NC(=O)[C@H](CCC(=O)O)NC(=O)[C@H](CC(C)C)NC(=O)[C@@H](NC(=O)CNC(=O)[C@H](CC(N)=O)NC(=O)[C@@H](N)CO)C(C)C)C(=O)N[C@H](C(=O)N1CCC[C@H]1C(=O)N[C@@H](CCCCN)C(=O)N[C@@H](CO)C(=O)N[C@@H](CC(C)C)C(=O)O)[C@@H](C)CC [NS1 233-247]
IC50 (DRB5*0101): 4070 nM
IC50 (DRB3*0101): 159 nM
IC50 (DRB4*0101): 3.87 µM

CC(C)C[C@H](NC(=O)[C@H](CCCCN)NC(=O)CNC(=O)[C@H](CC(C)C)NC(=O)[C@@H](N)Cc1c[nH]cn1)C(=O)N[C@@H](CCC(=O)O)C(=O)N[C@@H](CC(C)C)C(=O)N[C@@H](CC(=O)O)C(=O)N[C@@H](Cc1ccccc1)C(=O)N[C@@H](CC(N)=O)C(=O)N[C@@H](Cc1ccc(O)cc1)C(=O)N[C@@H](CS)C(=O)N[C@@H](CCC(=O)O)C(=O)NCC(=O)N[C@H](C(=O)O)[C@@H](C)O [NS1 269-283]
IC50 (DRB5*0101): 9470 nM
IC50 (DRB3*0101): 71 nM
IC50 (DRB4*0101): 0.085 µM

CC(C)C[C@H](NC(=O)[C@H](CCCCN)NC(=O)CNC(=O)[C@H](CO)NC(=O)[C@@H](NC(=O)[C@@H](NC(=O)[C@@H](NC(=O)[C@@H](NC(=O)[C@H](CCCNC(=N)N)NC(=O)[C@H](CC(C)C)NC(=O)[C@H](CO)NC(=O)[C@@H]1CCCN1C(=O)CNC(=O)[C@H](CCCNC(=N)N)NC(=O)[C@@H](N)[C@@H](C)O)[C@@H](C)O)[C@@H](C)O)[C@@H](C)O)C(C)C)C(=O)O [NS1 293-307]
IC50 (DRB5*0101): 2610 nM
IC50 (DRB3*0101): 2280 nM
IC50 (DRB4*0101): 0.793 µM

CC[C@H](C)[C@H](NC(=O)[C@H](CC(C)C)NC(=O)[C@H](CCCCN)NC(=O)CNC(=O)[C@H](CO)NC(=O)[C@@H](NC(=O)[C@@H](NC(=O)[C@@H](NC(=O)[C@@H](NC(=O)[C@H](CCCNC(=N)N)NC(=O)[C@H](CC(C)C)NC(=O)[C@@H](N)CO)[C@@H](C)O)[C@@H](C)O)[C@@H](C)O)C(C)C)C(=O)N[C@@H](Cc1c[nH]cn1)C(=O)N[C@@H](CCC(=O)O)C(=O)N[C@@H](Cc1c[nH]c2ccccc12)C(=O)O [NS1 297-311]
IC50 (DRB5*0101): 2110 nM
IC50 (DRB3*0101): 12400 nM
IC50 (DRB4*0101): 5.31 µM

CC(C)C[C@H](NC(=O)[C@H](CCCNC(=N)N)NC(=O)[C@H](CCCCN)NC(=O)CNC(=O)[C@@H](N)CC(N)=O)C(=O)N[C@@H](CCC(=O)O)C(=O)N1CCC[C@H]1C(=O)N[C@@H](CC(N)=O)C(=O)N[C@@H](Cc1c[nH]c2ccccc12)C(=O)N[C@@H](C)C(=O)N[C@@H](CO)C(=O)N[C@H](C(=O)N[C@@H](CCCCN)C(=O)N[C@@H](CCCCN)C(=O)N[C@@H](CC(=O)O)C(=O)O)C(C)C [NS3 61-75]
IC50 (DRB5*0101): 143 nM
IC50 (DRB3*0101): 1200 nM
IC50 (DRB4*0101): 7.03 µM

CC[C@H](C)[C@H](NC(=O)[C@H](C)NC(=O)CNC(=O)[C@@H](NC(=O)[C@H](CCC(=O)O)NC(=O)CNC(=O)[C@@H](NC(=O)[C@@H](NC(=O)[C@@H](NC(=O)[C@H](CCC(N)=O)NC(=O)[C@H](Cc1ccccc1)NC(=O)[C@@H](NC(=O)CNC(=O)[C@@H]1CCCN1)[C@@H](C)O)[C@@H](C)O)[C@@H](C)O)[C@@H](C)O)[C@@H](C)CC)C(=O)N[C@@H](C)C(=O)O [NS3 113-127]
IC50 (DRB5*0101): 2100 nM
IC50 (DRB3*0101): 3070 nM
IC50 (DRB4*0101): 1.84 µM

CC[C@H](C)[C@H](NC(=O)[C@H](C)NC(=O)CNC(=O)[C@@H](NC(=O)[C@H](CCC(=O)O)NC(=O)CN)[C@@H](C)CC)C(=O)N[C@@H](C)C(=O)N[C@@H](CC(C)C)C(=O)N[C@@H](CC(=O)O)C(=O)N[C@@H](Cc1ccccc1)C(=O)N[C@@H](CCCCN)C(=O)N1CCC[C@H]1C(=O)NCC(=O)N[C@H](C(=O)N[C@@H](CO)C(=O)O)[C@@H](C)O [NS3 121-135]
IC50 (DRB5*0101): 11900 nM
IC50 (DRB3*0101): 2210 nM
IC50 (DRB4*0101): 0.04 µM

CC[C@H](C)[C@H](NC(=O)[C@H](Cc1ccc(O)cc1)NC(=O)CNC(=O)[C@H](CCCNC(=N)N)NC(=O)[C@H](C)N)C(=O)N[C@@H](CO)C(=O)N[C@H](C(=O)N[C@@H](CCCNC(=N)N)C(=O)N[C@H](C(=O)NCC(=O)N[C@@H](CCSC)C(=O)NCC(=O)N[C@@H](CCC(=O)O)C(=O)N[C@@H](C)C(=O)N[C@@H](C)C(=O)O)C(C)C)[C@@H](C)O [NS3 297-311]
IC50 (DRB5*0101): 3450 nM
IC50 (DRB3*0101): 8650 nM
IC50 (DRB4*0101): 7.23 µM

CC[C@H](C)[C@H](NC(=O)[C@@H](NC(=O)[C@H](CCCCN)NC(=O)[C@H](CCCCN)NC(=O)CNC(=O)[C@H](CC(N)=O)NC(=O)[C@H](CCCCN)NC(=O)[C@H](CCCNC(=N)N)NC(=O)[C@H](CC(C)C)NC(=O)[C@H](CS)NC(=O)[C@H](CC(N)=O)NC(=O)[C@H](C)N)C(C)C)C(=O)N[C@@H](CCC(N)=O)C(=O)N[C@@H](CC(C)C)C(=O)N[C@@H](CO)C(=O)O [NS3 373-387]
IC50 (DRB5*0101): 3540 nM
IC50 (DRB3*0101): 3430 nM
IC50 (DRB4*0101): 1.63 µM

CC(C)C[C@H](NC(=O)[C@H](CCCCN)NC(=O)[C@@H](NC(=O)[C@H](CCCCN)NC(=O)[C@H](CCC(N)=O)NC(=O)[C@H](Cc1ccc(O)cc1)NC(=O)[C@H](CCC(=O)O)NC(=O)[C@@H](NC(=O)[C@H](CC(=O)O)NC(=O)[C@H](Cc1ccccc1)NC(=O)[C@@H](NC(=O)[C@@H](N)CCCCN)[C@@H](C)O)[C@@H](C)O)[C@@H](C)O)C(=O)N[C@@H](CC(N)=O)C(=O)N[C@@H](CC(=O)O)C(=O)N[C@@H](Cc1c[nH]c2ccccc12)C(=O)O [NS3 389-403]
IC50 (DRB5*0101): 2330 nM
IC50 (DRB3*0101): 4530 nM
IC50 (DRB4*0101): 9.91 µM

CC[C@H](C)[C@H](NC(=O)[C@@H](NC(=O)[C@H](CCCNC(=N)N)NC(=O)[C@H](CCC(=O)O)NC(=O)[C@@H]1CCCN1C(=O)CNC(=O)[C@H](CC(=O)O)NC(=O)[C@@H](NC(=O)[C@H](CC(C)C)NC(=O)[C@@H](NC(=O)[C@@H](NC(=O)[C@@H]1CCCN1C(=O)[C@H](CCCCN)NC(=O)[C@H](CC(C)C)NC(=O)[C@@H](N)CS)C(C)C)[C@@H](C)CC)[C@@H](C)O)C(C)C)C(=O)O [NS3 429-443]
IC50 (DRB5*0101): 13200 nM
IC50 (DRB3*0101): 5.7 nM
IC50 (DRB4*0101): 1.21 µM

CC[C@H](C)[C@H](NC(=O)[C@@H](N)C(C)C)C(=O)N[C@@H](CC(C)C)C(=O)N[C@H](C(=O)N[C@@H](CC(=O)O)C(=O)NCC(=O)N1CCC[C@H]1C(=O)N[C@@H](CCC(=O)O)C(=O)N[C@@H](CCCNC(=N)N)C(=O)N[C@H](C(=O)N[C@H](C(=O)N[C@@H](CC(C)C)C(=O)N[C@@H](C)C(=O)NCC(=O)N1CCC[C@H]1C(=O)O)[C@@H](C)CC)C(C)C)[C@@H](C)O [NS3 433-447]
IC50 (DRB5*0101): 8290 nM
IC50 (DRB3*0101): 134 nM
IC50 (DRB4*0101): 3.51 µM

CC[C@H](C)[C@H](NC(=O)[C@H](CC(C)C)NC(=O)[C@H](CCC(=O)O)NC(=O)[C@@H](N)Cc1c[nH]cn1)C(=O)N[C@@H](CCSC)C(=O)N[C@@H](CCCCN)C(=O)N[C@@H](CC(=O)O)C(=O)NCC(=O)N[C@@H](CCCNC(=N)N)C(=O)N[C@@H](CCCCN)C(=O)N[C@@H](CC(C)C)C(=O)N[C@H](C(=O)N[C@H](C(=O)N1CCC[C@H]1C(=O)N[C@@H](CS)C(=O)N[C@@H](CCCNC(=N)N)C(=O)O)C(C)C)C(C)C [NS5 714-729]
IC50 (DRB5*0101): 245 nM
IC50 (DRB4*0101): 4.02 µM
